In the PolyMetriX glass transition set:

SMILES	glass transition temperature [°C]
*CC(*)(C)C(=O)OCC1COCCOCCOCCOCCOC1 (repeat unit)	31.00
*CC(*)c1c(F)c(F)c(OCC(F)(F)C(F)(F)F)c(F)c1F (repeat unit)	61.00
*CCCCCCNC(=O)CC(C)(C)c1ccc(C(C)(C)CC(=O)N*)cc1 (repeat unit)	91.00
*NC(=O)NCCCCCCNC(=O)Nc1cccc(*)n1 (repeat unit)	170.00
*c1ccc(Oc2ccc(-c3cccc(-c4ccc(Oc5ccc(-c6c7c(c(*)c8ccccc68)C(=O)N(c6ccccc6)C7=O)cc5)c(C(F)(F)F)c4)c3)cc2C(F)(F)F)cc1 (repeat unit)	271.00
*c1ccc(-c2nc3cc(Oc4ccc(NC(=O)c5cc(C(=O)Nc6ccc(Oc7ccc8nc(-c9ccccc9)c(-c9ccc(N%10C(=O)c%11ccc%12c%13c(ccc(c%11%13)C%10=O)C(=O)N(*)C%12=O)cc9)nc8c7)cc6)cc(N6C(=O)c7ccccc7C6=O)c5)cc4)ccc3nc2-c2ccccc2)cc1 (repeat unit)	345.00
*c1ccc2c(c1)C(=O)N(c1ccc(OCCCCCCCCCCOc3ccc(N4C(=O)c5ccc(C(*)(C(F)(F)F)C(F)(F)F)cc5C4=O)cc3)cc1)C2=O (repeat unit)	143.00
*CC(*)OC(=O)c1nn(C(C)=O)c2ccccc12 (repeat unit)	150.00
*CCCCCCOc1c(OC)cc(/C=C2\CCC/C(=C\c3cc(OC)c(O*)c(OC)c3)C2=O)cc1OC (repeat unit)	71.00
*C(=O)OCCN(CCOC(=O)c1ccc2c(c1)C(=O)N(c1cccc(N3C(=O)c4ccc(*)cc4C3=O)c1)C2=O)c1ccc(/N=N/c2ccc(F)cc2)cc1 (repeat unit)	168.00
*c1ccc(C(C)(C)c2ccc(N3C(=O)c4ccc(Oc5ccc(Oc6ccc7c(c6)C(=O)N(*)C7=O)cc5)cc4C3=O)cc2)cc1 (repeat unit)	264.00
*c1cccc(P(C)(=O)c2cccc(N3C(=O)c4ccc(NC(=O)OCCOc5ccc(C(c6ccc(OCCOC(=O)Nc7ccc8c(c7)C(=O)N(*)C8=O)cc6)(C(F)(F)F)C(F)(F)F)cc5)cc4C3=O)c2)c1 (repeat unit)	204.00
*Oc1ccc(-c2ccc(-c3cc(-c4ccccc4)c(-c4ccc(-c5ccc(OC(=O)c6ccc(C(*)=O)cc6-c6ccccc6)cc5)cc4)c(-c4ccccc4)c3-c3ccccc3)cc2)cc1 (repeat unit)	260.00
*c1ccc(C(=O)Nc2ccc(Oc3ccc(NC(=O)c4ccc(Oc5ccc(-c6nn(*)c(=O)c7ccccc67)cc5)cc4)cc3)cc2)cc1 (repeat unit)	280.00
*CC(*)c1c(F)c(F)c(C(F)(F)F)c(F)c1F (repeat unit)	112.00
*CC(=O)NCCCCCCNC(=O)CO* (repeat unit)	10.00
*c1ccc(Oc2ccc(-c3ccc(Oc4ccc(N5C(=O)C(c6ccccc6)=C(c6ccc(C7=C(c8ccccc8)C(=O)N(*)C7=O)cc6)C5=O)cc4)cc3)cc2)cc1 (repeat unit)	282.00
*C(=O)c1ccc2c(c1)C(=O)N(C1CCC(CC3CCC(N4C(=O)c5ccc(*)cc5C4=O)CC3)CC1)C2=O (repeat unit)	254.00
*Oc1ccc(S(=O)(=O)c2ccc(Oc3ccc(-c4ccc(Oc5ccc(C(=O)c6ccc(*)cc6)cc5)cc4)cc3)cc2)cc1 (repeat unit)	206.00
*C(=O)c1cc2c(cc1Cl)C(=O)N(c1cc(Cl)cc(N3C(=O)c4cc(*)c(Cl)cc4C3=O)c1)C2=O (repeat unit)	311.00
*CCCCCC(*)CCCCCC (repeat unit)	-76.00
*c1ccc(-c2nc3cc(Oc4ccc5nc(-c6ccccc6)c(-c6ccc(-n7c(=O)c8cc9c(=O)n(*)c(=O)c9cc8c7=O)cc6)nc5c4)ccc3nc2-c2ccccc2)cc1 (repeat unit)	274.00
*/C(C)=C(/*)CCCCCCC (repeat unit)	160.00
*CCOCCOCCOC(=O)/C=C/C(=O)NCCCCCCNC(=O)/C=C/C(=O)O* (repeat unit)	65.00
*CC(*)(C)C(=O)OCc1ccc2c(c1)c1ccccc1n2CCCCCCCCCCCCCCCC (repeat unit)	23.00
*CCCCCCCCOC(=O)Nc1ccc(C)c(NC(=O)O*)c1 (repeat unit)	64.00
*C(=O)c1ccc2c(c1)C(=O)N(c1c(-c3ccccc3)cc(-c3ccc(-c4cc(-c5ccccc5)c(N5C(=O)c6ccc(*)cc6C5=O)c(-c5ccccc5)c4)cc3)cc1-c1ccccc1)C2=O (repeat unit)	265.00
*C(F)(F)C(*)(F)c1c(F)c(F)c(F)c(F)c1F (repeat unit)	194.00
*N=P(*)(C)CCCCCC (repeat unit)	-69.00

Results, then the compound that gave them:

glass transition temperature [°C]	SMILES
312.00	*Cc1ccc2oc(=O)c(C(=O)Nc3ccc(Oc4ccc(NC(=O)c5cc6cc(*)ccc6oc5=O)cc4)cc3)cc2c1 (repeat unit)
56.00	*Oc1ccc(CC(NC(=O)CCc2ccc(OC(=O)CCCCC(*)=O)cc2)C(=O)OCC(C)C)cc1 (repeat unit)
29.50	*CC(*)C(=O)OCCCCCCOc1ccc(C(=O)Oc2ccc(OC)cc2)cc1 (repeat unit)
12.50	*CC(*)(C)C(=O)OCCCN(C)c1ccc(N(C)C)cc1 (repeat unit)
96.00	*Oc1cccc(OC(=O)c2cc(OCCCCC)cc(C(*)=O)c2)c1 (repeat unit)
65.00	*O[Si](C)(C)c1ccc2ccc3c([Si](*)(C)C)ccc4ccc1c2c43 (repeat unit)
95.00	*Oc1ccc(Cc2ccc(OC(*)=S)cc2)cc1 (repeat unit)
246.00	*c1cccc(Cc2cccc(N3C(=O)c4ccc([Si](C)(C)c5ccc([Si](C)(C)c6ccc7c(c6)C(=O)N(*)C7=O)cc5)cc4C3=O)c2)c1 (repeat unit)
162.20	*Oc1ccc(S(=O)(=O)c2ccc(OC3(F)C(*)(F)C(F)(F)C3(F)F)cc2)cc1 (repeat unit)
102.00	*CC(*)C(=O)OCCN(CC)c1ccc(/N=N/c2ccc([N+](=O)[O-])cc2)cc1 (repeat unit)
220.00	*Oc1ccc(C(C)(C)c2ccc(OC(=O)c3ccc(Oc4ccc(C(*)=O)cc4)cc3)cc2)cc1 (repeat unit)
220.00	*/N=N/c1ccc(NC(=O)CCC(=O)Nc2ccc(*)cc2)cc1 (repeat unit)
81.2	*CC(*)c1ccc(-c2ccc3c(c2)C(CCCCCC)(CCCCCC)c2ccccc2-3)cc1 (repeat unit)
254.00	*c1cccc(N2C(=O)c3ccc(Oc4ccc5ccc(Oc6ccc7c(c6)C(=O)N(*)C7=O)cc5c4)cc3C2=O)c1 (repeat unit)
71.00	*CC(*)C(=O)Oc1ccc(C(C)(C)C)cc1 (repeat unit)
132.2	*O[Si](Oc1ccc(-c2ccc(*)cc2)cc1)(c1ccccc1)c1ccccc1 (repeat unit)
321.00	*c1cccc(C(=O)c2cccc(-n3c(=O)c4cc5c(=O)n(*)c(=O)c5cc4c3=O)c2)c1 (repeat unit)
